In patent US9650339B2, “Inhibitors of histone demethylases” (Gilead Sciences, Inc., priority 2013, dated 2017):

How the values were obtained:
KDM5B = target: T1, KDM5B (Homo sapiens, UniProt Q9UGL1); test: Histone lysine demethylase immunofluorescence assay, U2OS cells transfected with KDM5B; type: cell-based; conditions: U2OS cells transfected with pCMVHA KDM5B; mark detected H3K4me2; 20 hours
T1 construct: (a.a. 1-752); host or cells: U2OS
T1 sequence (Q9UGL1 1-752): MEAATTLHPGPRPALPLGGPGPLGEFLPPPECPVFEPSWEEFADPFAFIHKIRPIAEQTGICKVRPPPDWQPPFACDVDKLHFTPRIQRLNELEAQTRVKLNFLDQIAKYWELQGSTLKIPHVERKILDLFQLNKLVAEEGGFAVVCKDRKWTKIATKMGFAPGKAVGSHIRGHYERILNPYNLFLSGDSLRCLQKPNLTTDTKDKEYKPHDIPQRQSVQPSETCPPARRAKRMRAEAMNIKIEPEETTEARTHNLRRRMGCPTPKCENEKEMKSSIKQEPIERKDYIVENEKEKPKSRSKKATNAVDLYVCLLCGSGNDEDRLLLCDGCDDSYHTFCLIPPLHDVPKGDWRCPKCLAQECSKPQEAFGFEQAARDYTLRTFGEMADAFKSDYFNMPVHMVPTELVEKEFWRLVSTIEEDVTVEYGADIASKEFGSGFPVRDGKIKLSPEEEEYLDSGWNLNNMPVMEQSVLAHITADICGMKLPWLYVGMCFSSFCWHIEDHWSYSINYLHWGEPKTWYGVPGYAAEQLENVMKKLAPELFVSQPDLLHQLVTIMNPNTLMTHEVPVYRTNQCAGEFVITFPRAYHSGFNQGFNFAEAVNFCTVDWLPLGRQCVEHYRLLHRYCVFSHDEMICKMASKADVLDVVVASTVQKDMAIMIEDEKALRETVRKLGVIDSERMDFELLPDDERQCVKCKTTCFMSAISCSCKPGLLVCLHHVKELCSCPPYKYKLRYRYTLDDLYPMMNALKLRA
Protocol: U2OS cells were seeded 24 hours before transfection. Transfection was performed with Fugene HD transfection reagent as recommended by the manufacturer. 6 hours after transfection, the cells were harvested and seeded into multi well plates into media containing compound. The media used was DMEM containing 10% FBS and pen/strep. 20 hours after incubation of cells with compounds, the cells were washed in PBS, harvested by fixation with formaldehyde 4% aqueous solution, and washed in PBS. Subsequently, the cells were permeabilized in PBS with 0.2% Triton X-100 for. Blocking was performed in PBS with 0.2% Triton X-100 and 5% FBS. The cells were incubated with primary antibodies in blocking solution over night at 4° C. The primary antibodies used in the assays were HA.11 (Covance, MMS-101P) and the antibody detecting the mark specified in the table below. After incubation with primary antibodies, the cells were washed with PBS, incubated with secondary antibodies (Alexa fluor 594 goat anti rabbit IgG, Invitrogen, A11012; Alexa flour 488 donkey anti mouse IgG, Invitrogen, A21202) and Hoechst, (Sigma, 33342) in blocking solution, and washed again with PBS. Finally, PBS was added and high throughput imaging and analysis were performed by an IN Cell Analyzer 1000 (GE Healthcare). The robot software analyzed individual cells and divided these into HA+ (transfected cells) and HA− (non-transfected cells). The IC50 values were based on an average measure of the staining of the mark specified in the table below in the transfected cells.

KDM4A (JMJD2A) = target: T2, KDM4A (JMJD2A) (Homo sapiens, UniProt O75164); test: Histone lysine demethylase AlphaLISA assay, KDM4A; type: biochemical; conditions: read-out: KDM4A HDME Inhibition IC50
T2 construct: 1-350; purchased BPS Bioscience, US; host or cells: E. coli
T2 sequence (O75164 1-350): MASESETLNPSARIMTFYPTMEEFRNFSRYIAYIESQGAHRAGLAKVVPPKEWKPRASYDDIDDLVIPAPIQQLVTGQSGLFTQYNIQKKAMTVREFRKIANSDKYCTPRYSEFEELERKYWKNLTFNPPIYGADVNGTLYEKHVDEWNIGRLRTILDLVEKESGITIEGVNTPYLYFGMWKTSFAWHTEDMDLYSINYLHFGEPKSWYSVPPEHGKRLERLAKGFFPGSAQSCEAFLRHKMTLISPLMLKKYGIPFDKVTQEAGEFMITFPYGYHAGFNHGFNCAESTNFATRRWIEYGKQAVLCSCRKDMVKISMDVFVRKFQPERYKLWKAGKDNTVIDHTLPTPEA
Protocol: (§1) Assays are performed analogously to the protocol described by PerkinElmer (Roy et al. PerkinElmer Technical Note: AlphaLISA #12, April 2011)
(§2) Enzymes are dissolved in enzyme buffer and incubated for 10 min before being added to 3% DMSO solutions of compounds in enzyme buffer. Incubated for another 10 minutes, before substrate solution is added and the reaction mixture is incubated at room temperature. 10 μL acceptor beads, suspended in Epigenetic Buffer (Perkin Elmer AL008) from stock, are added and the suspension is incubated in the dark at room temperature, before a suspension of streptavidin donor beads (Perkin Elmer 6760002) in Epigenetic Buffer is added. After incubation at room temperature in the dark the plates are read.
BK9M3: Biotin-ARTKQTAR(KMe3)STGGKAPRKQ-NH2 (Caslo, Denmark) […]
(§3) Substrate Solution: Substrate, 25 μM L-Asc, and 10 μM α-KG in Buffer A.

KDM6B (JMJD3) = target: T3, KDM6B (JMJD3) (Homo sapiens, UniProt O15054); test: Histone lysine demethylase AlphaLISA assay, KDM6B; type: biochemical; conditions: read-out: KDM6B HDME Inhibition IC50
T3 construct: 1043-end; purchased BPS; host or cells: Bac (baculovirus system)
Protocol: as §1
as §2, with “read. […]” for “read.”
BK27M3: Biotin-ATKAAR(Kme3)SAPATGGVKKPHRY-NH2? (Caslo, Denmark) […]
as §3

KDM5C (JARID1C) = target: T4, KDM5C (JARID1C) (Homo sapiens, UniProt P41229); test: Histone lysine demethylase AlphaLISA assay, KDM5C; type: biochemical; conditions: read-out: KDM5C HDME Inhibition IC50
T4 construct: 2-1560; purchased BPS; host or cells: Bac (baculovirus system)
Protocol: as §1
as §2, with “read. […]” for “read.”
H3K4M3B: H-ART(Kme3)QTARKSTGGKAPRKQLA-NH-Biotin (Caslo, Denmark) […]
as §3

T4 sequence (P41229 2-1560): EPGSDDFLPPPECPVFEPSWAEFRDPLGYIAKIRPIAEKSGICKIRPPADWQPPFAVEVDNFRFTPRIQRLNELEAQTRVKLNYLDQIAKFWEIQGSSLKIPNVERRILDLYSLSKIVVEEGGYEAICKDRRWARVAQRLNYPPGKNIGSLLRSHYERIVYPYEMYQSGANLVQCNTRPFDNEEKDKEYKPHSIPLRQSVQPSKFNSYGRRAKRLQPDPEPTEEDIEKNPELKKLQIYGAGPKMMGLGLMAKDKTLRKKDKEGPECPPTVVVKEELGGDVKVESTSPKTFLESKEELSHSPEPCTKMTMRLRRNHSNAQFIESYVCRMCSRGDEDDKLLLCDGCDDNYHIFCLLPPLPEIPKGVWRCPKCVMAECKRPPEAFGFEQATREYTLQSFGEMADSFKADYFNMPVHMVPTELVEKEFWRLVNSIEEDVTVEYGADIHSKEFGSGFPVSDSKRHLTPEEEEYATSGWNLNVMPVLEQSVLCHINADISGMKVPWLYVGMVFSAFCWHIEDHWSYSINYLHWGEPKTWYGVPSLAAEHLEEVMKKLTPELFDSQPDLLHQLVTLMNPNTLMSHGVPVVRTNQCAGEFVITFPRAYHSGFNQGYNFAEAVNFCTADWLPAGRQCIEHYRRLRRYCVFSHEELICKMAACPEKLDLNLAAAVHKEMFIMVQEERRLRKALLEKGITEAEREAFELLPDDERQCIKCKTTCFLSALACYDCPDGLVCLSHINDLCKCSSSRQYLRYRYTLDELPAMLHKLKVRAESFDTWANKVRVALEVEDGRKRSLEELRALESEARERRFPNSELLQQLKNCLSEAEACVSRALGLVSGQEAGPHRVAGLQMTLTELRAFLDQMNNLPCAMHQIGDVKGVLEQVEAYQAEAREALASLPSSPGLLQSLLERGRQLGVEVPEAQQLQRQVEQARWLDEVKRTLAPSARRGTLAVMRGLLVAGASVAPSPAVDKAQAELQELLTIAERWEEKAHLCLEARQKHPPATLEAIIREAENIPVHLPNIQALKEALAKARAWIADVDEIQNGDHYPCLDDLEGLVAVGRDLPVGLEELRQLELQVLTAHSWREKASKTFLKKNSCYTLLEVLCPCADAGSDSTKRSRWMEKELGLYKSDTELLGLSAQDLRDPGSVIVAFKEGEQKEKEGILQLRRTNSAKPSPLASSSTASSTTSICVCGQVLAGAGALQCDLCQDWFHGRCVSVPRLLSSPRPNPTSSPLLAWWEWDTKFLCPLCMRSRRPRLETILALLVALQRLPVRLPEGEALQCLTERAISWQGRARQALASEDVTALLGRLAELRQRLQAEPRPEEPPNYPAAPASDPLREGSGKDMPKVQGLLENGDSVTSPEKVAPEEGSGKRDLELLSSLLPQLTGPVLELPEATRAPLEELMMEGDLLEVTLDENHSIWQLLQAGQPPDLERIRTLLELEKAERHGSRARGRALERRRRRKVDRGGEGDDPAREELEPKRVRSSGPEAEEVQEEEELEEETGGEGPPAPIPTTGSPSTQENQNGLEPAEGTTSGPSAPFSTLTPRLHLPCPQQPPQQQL
T3 sequence (O15054 1043-1682 isoform O15054-1 limits assumed): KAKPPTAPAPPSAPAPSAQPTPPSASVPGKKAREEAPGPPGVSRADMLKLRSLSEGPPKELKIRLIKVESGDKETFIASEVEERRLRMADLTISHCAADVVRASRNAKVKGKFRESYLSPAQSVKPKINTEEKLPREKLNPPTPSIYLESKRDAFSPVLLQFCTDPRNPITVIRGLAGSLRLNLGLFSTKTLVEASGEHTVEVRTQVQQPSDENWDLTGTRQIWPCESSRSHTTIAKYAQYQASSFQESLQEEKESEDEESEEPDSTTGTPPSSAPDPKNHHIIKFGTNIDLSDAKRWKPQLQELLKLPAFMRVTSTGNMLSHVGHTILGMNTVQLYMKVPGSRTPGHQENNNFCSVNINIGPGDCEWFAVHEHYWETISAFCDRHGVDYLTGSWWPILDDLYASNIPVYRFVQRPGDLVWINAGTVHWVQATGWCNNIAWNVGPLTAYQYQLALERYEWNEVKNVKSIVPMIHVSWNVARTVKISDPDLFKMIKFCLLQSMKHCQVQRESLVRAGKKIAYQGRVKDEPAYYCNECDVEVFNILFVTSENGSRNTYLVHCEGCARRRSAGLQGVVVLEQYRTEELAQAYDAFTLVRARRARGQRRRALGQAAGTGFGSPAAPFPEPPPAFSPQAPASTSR

| Compound | IC50 (KDM5B) | IC50 (KDM4A (JMJD2A)) | IC50 (KDM6B (JMJD3)) | IC50 (KDM5C (JARID1C)) |
| --- | --- | --- | --- | --- |
| CCN(CC)CCCCNCc1cc(CN)ccn1 [Compound 5, [2-({[4-(diethylamino)butyl]-amino}methyl)pyridin-4-yl]methanamine] | < 250 nM | > 2500 nM | > 2500 nM |  |
| NCc1ccnc(CNCCCCN2CCC2)c1 [Compound 7, [2-({[4-(azetidin-1-yl)butyl]amino}methyl)-pyridin-4-yl]-methanamine] | < 250 nM | > 2500 nM | > 2500 nM |  |
| CN(C)CCCCNCc1cc(CNC2CC2)ccn1 [Compound 10, N-{[2-({[4-(dimethylamino)butyl]-amino}methyl)pyridin-4-yl]methyl}-cyclopropanamine] | > 2500 nM | > 2500 nM | > 2500 nM |  |
| CC1CCCCN1CCCNCc1cc(CNC2CC2)ccn1 (centres unmarked) [Compound 11, N-{[2-({[3-(2-methylpiperidin-1-yl)propyl]amino}methyl)-pyridin-4-yl]methyl}-cyclopropanamine] | > 2500 nM | > 2500 nM | > 2500 nM |  |
| CN(CCCNCc1cc(/C=N/C2CC2)ccn1)Cc1ccccc1 [Compound 41, N-({2-[({3-[benzyl(methyl)amino]-propyl}amino)methyl]-pyridin-4-yl}methylidene)-cyclopropanamine] | 250 to 2500 nM | < 250 nM | > 2500 nM |  |
| C(=N\C1CC1)/c1ccnc(CNCCCCN2CCC2)c1 [Compound 44, N-{[2-({[4-(azetidin-1-yl)butyl]amino}methyl)-pyridin-4-yl]methylidene}-cyclopropanamine] |  | > 2500 nM | 250 to 2500 nM | < 250 nM |
| CCN(CC)C(=O)CNCc1cc(/C=N/CCC2CCCCC2)ccn1 [Compound 57, 2-[({4-[[(2-cyclohexylethyl)imino]-methyl]pyridin-2-yl}methyl)amino]-N,N-diethylacetamide] |  | 250 to 2500 nM | > 2500 nM | < 250 nM |
| CCCCCCCC/N=C/c1ccnc(CNCC(=O)N(CC)CC)c1 [Compound 58, N,N-diethyl-2-[({4-[(octylimino)methyl]-pyridin-2-yl}methyl)amino]-acetamide] |  | > 2500 nM | > 2500 nM | < 250 nM |
| CCN(CC)CCCCNCc1cc(/C=N\CCC2CCCCC2)ccn1 [Compound 67, (2-cyclohexylethyl)-({[2-({[4-(diethylamino)-butyl]amino}methyl)pyridin-4-yl]methylidene})-amine] | < 250 nM | > 2500 nM |  | < 250 nM |
| CCN(CCN(C)C)C(=O)CNCc1cc(C2OCC(Cc3ccccc3)CN2C(=O)C(F)(F)F)ccn1 (centres unmarked) [Compound 90, 2-[({4-[5-benzyl-3-(trifluoroacetyl)-1,3-oxazinan-2-yl]pyridin-2-yl}methyl)amino]-N-[2-(dimethylamino)-ethyl]-N-ethylacetamide] | < 250 nM |  |  |  |
| CCN(CCN(C)C)C(=O)CNCc1cc(C2OCC3(CC3)CN2C(=O)C(F)(F)F)ccn1 (centres unmarked) [Compound 91, N-[2--(dimethylamino)-ethyl]-N-ethyl-2-[({4-[7-(trifluoroacetyl)-5-oxa-7-azaspiro[2.5]-octan-6-yl]pyridin-2-yl}methyl)amino]-acetamide] | < 250 nM |  |  |  |
| CN(Cc1ccccc1F)C(=O)CNCc1cc(/C=N/CCO)ccn1 [Compound 92, N-[(2-fluorophenyl)methyl]-2-[({4-[[(2-hydroxyethyl)imino]-methyl]pyridin-2-yl}methyl)amino]-N-methylacetamide] | > 2500 nM |  |  |  |
| OCC/N=C/c1ccnc(CNCCc2ccccc2OCc2ccccc2)c1 [Compound 93, 2-[({2-[({2-[2-(benzyloxy)phenyl]-ethyl}amino)methyl]-pyridin-4-yl}methylidene)-amino]ethan-1-ol] | > 2500 nM |  |  |  |
| CCN(CCC#N)C(=O)CNCc1cc(/C=N/CCO)ccn1 [Compound 94, N-(2-cyanoethyl)-N-ethyl-2-[({4-[[(2-hydroxyethyl)imino]-methyl]pyridin-2-yl}methyl)amino]-acetamide] | 250 to 2500 nM |  |  |  |
| CC(C)C[C@H](NCc1cc(/C=N/CCO)ccn1)C(=O)N1CCCCC1 [Compound 95, (2S)-2-[({4-[[(2-hydroxyethyl)imino]-methyl]pyridin-2-yl}methyl)amino]-4-methyl-1-(piperidin-1-yl)pentan-1-one] | > 2500 nM |  |  |  |
| CN(C)CC1CCC(CNCc2cc(C=O)ccn2)CC1 (centres unmarked) [Compound 97, 2-{[({4-[(dimethylamino)-methyl]cyclohexyl}-methyl)amino]-methyl}pyridine-4-carbaldehyde] | < 250 nM | > 2500 nM | > 2500 nM |  |
| CN1CCC(CNCc2cc(C=O)ccn2)CC1 [Compound 100, 2-({[(1-methyl-piperidin-4-yl)methyl]amino}-methyl)pyridine-4-carbaldehyde] | < 250 nM |  | > 2500 nM | < 250 nM |
| CCN1CCCC1CNC(=O)CNCc1cc(C=O)ccn1 (centres unmarked) [Compound 104, N-[(1-ethylpyrrolidin-2-yl)methyl]-2-{[(4-formylpyridin-2-yl)methyl]amino}-acetamide] | 250 to 2500 nM |  | > 2500 nM | < 250 nM |
| CCN(CC)C(=O)CNCc1cc(C=O)ccn1 [Compound 105, N,N-diethyl-2-{[(4-formylpyridin-2-yl)methyl]amino}-acetamide] | 250 to 2500 nM | > 2500 nM | > 2500 nM |  |
| O=Cc1ccnc(CNCCCN2CCCC2)c1 [Compound 111, 2-({[3-(pyrrolidin-1-yl)propyl]amino}-methyl)pyridine-4-carbaldehyde] | < 250 nM |  | > 2500 nM | < 250 nM |
| CCN(CC(C)(C)N(C)C)C(=O)CNCc1cc(C=O)ccn1 [Compound 118, N-[2-(dimethylamino)-2-methylpropyl]-N-ethyl-2-{[(4-formylpyridin-2-yl)methyl]amino}-acetamide] | < 250 nM |  |  |  |
| CN(CC(=O)N1CCCCC1)Cc1cc(C=O)ccn1 [Compound 120, 2-({methyl[2-oxo-2-(piperidin-1-yl)ethyl]amino}-methyl)pyridine-4-carbaldehyde] | > 2500 nM |  |  |  |
